Experiments:
[1] = system: vascular endothelial cells; test: Monocrotaline exposure of three-dimensional cellular tissue containing hepatocytes, vascular endothelial cells and hepatic stellate cells; CD31 fluorescent immunostaining; assay type: cell-based; conditions: mixed three-cell-type three-dimensional tissue; exposure to various concentrations of monocrotaline; FIG. 1B
Excerpt: FIG. 1A is a schematic diagram illustrating the above experiment. […] Then, after exposure to various concentrations of monocrotaline, the three-dimensional cellular tissue was fixed and stained for CD31 by fluorescent immunostaining. CD31 is a marker for endothelial cells.
The upper row of FIG. 1B is a fluorescence microscopy image showing the results of immunostaining. The lower row of FIG. 1B is a skeletonized image obtained by processing the image in the upper row of FIG. 1B.

[2] = system: vascular endothelial cells; test: Comparative experiment: liver tissue of hepatocytes only and separate three-dimensional tissue of vascular endothelial cells and hepatic stellate cells in the same well, monocrotaline exposure; CD31 fluorescent immunostaining; assay type: cell-based; conditions: hepatocyte tissue and endothelial/stellate tissue separate, not in contact, various concentrations of monocrotaline, FIG. 2B
Excerpt: FIG. 2A is a schematic diagram illustrating a comparative experiment. […] Then, after exposure to various concentrations of monocrotaline, these tissues were fixed and stained for CD31 by fluorescent immunostaining.
FIG. 2B is a fluorescence microscopy image showing the results of immunostaining.

## C[C@H]1C(=O)O[C@@H]2CCN3CC=C(COC(=O)[C@](C)(O)[C@]1(C)O)[C@H]23 [monocrotaline]
[1]
  damage to the vascular endothelial cells of the blood vessels (CD31 immunostaining): damaged in a monocrotaline concentration-dependent manner
[2]
  damage to the vascular endothelial cells of the blood vessels (CD31 immunostaining): no damage to the vascular endothelial cells of the blood vessels was observed

— patent US20250027055A1, “METHOD OF CULTURING THREE-DIMENSIONAL CELLULAR TISSUES” (priority 2021, published 2025)
